Results published in US9447035B2, “Integrin antagonist conjugates for targeted delivery to cells expressing VLA-4” (Hoffmann-La Roche Inc., priority 2012, dated 2016).

Tested on: AML MV4-11 cells
Test: siRNA uptake in AML MV4-11 cells by imaging flow cytometry
Type: cell-based
Experimental: AML MV4-11 cells in growth medium (RPMI 1640 with 10% FBS) were incubated with Duplex-27 (500 nM) for 1 hour at 37° C. For determining VLA-4 independent binding, 140 (10 μM) was included in one condition to block VLA-4 dependent binding. After incubation, the cells were then washed twice with D-PBS and fixed in 1% paraformaldehyde for 10 minutes. The uptake of siRNA was analyzed by imaging flow cytometry using ImageStreamx (Aminis Corporation, Seattle).

Compound: Cc1cccc(Cl)c1C(=O)N[C@@H](Cc1ccc(NC(=O)c2c(Cl)cccc2Cl)cc1)C(=O)O [Example 140]
- Mean Cy3 intensity (140 alone at 10 μM, 1 hour at 37° C.): 663
- effect on the histograph shift of the VLA-4-targeted siRNA duplex (VLA-4 antagonist 140 present): this shift is oblated
